Data set [1] has as its system rat primary hepatocytes. The data set can be described thus: MMP assay in rat primary hepatocytes. As to conditions: for IC50: read-out: MMP assays IC50 (µM) Rat Hepatocytes.
Data set [2] has as its system rat primary hepatocytes.
The test system of data set [3] is HepG2 cells. As to conditions: cited from earlier work.
Data set [4] concerns HepG2 cells. As to conditions: for IC50: read-out: MMP assays IC50 (µM) HepG2.
[5] abbreviates: read-out: MMP assays IC50 (µM), qHTS-HepG2.
[6] abbreviates: read-out: MMP assays IC50 (µM) qHTS-HepG2.

Counter-ions that a name gives are not always drawn. Like-named read-outs stand apart in the source and are kept apart here.

Here are results for 18 compounds from article PMC6112376, “Comprehensive Analyses and Prioritization of Tox21 10K Chemicals Affecting Mitochondrial Function by in-Depth Mechanistic Studies” (Environmental Health Perspectives, 2018).

The IC50 is the concentration that gives 50% inhibition. As for `COc1cc([C@@H]2c3cc4c(cc3[C@H](O)[C@H]3COC(=O)[C@@H]23)OCO4)cc(OC)c1OC` [Picropodophyllin;AXL-1717/NSC-36407], the “MMP assays IC50 (µM) Rat Hepatocytes” value with rat primary hepatocytes [1] is “inactive”. For the same compound, the “MMP assays efficacy (%) Rat Hepatocytes” value in the data set with rat primary hepatocytes [2] was “inactive”. Besides, the “MMP assays efficacy (%) qHTS-HepG2” value with HepG2 cells [3] is -56±10%. In the data set with HepG2 cells [3] (setting [5]), the IC50 is 0.14 ± 0.02 µM. In addition, in the data set with HepG2 cells [4], the “MMP assays efficacy (%) HepG2” value is on record as -58% and the half-maximal inhibitory concentration (IC50) amounted to 0.0548 µM.
As to `Nc1ccc(/N=N/c2ccccc2)c(N)n1` [Phenazopyridine hydrochloride], the 50% inhibitory concentration (IC50) in the data set with rat primary hepatocytes [1] (Rattus norvegicus, Hepatocyte) amounted to 23.8 ± 1.93 µM. Also, the “MMP assays efficacy (%) Rat Hepatocytes” value with rat primary hepatocytes [2] is on record as -59±26%. Moreover, the “MMP assays efficacy (%) qHTS-HepG2” value in the data set with HepG2 cells [3] was -74±20%. Also, in the data set on HepG2 cells [3] (setting [5]), the IC50 was 15.7 ± 3.45 µM. Further, in the data set on HepG2 cells [4], the “MMP assays IC50 (µM) HepG2” value is “inactive” and the “MMP assays efficacy (%) HepG2” value was “inactive”.
Take `N=C(N)NN=C(/C=C/c1ccc([N+](=O)[O-])o1)/C=C/c1ccc([N+](=O)[O-])o1` [Nitrovin]: the concentration for half-maximal inhibition (IC50) in the data set on rat primary hepatocytes [1] was 16.4 ± 1.33 µM; in the data set with HepG2 cells [3] (setting [5]), 3.27 ± 0.57 µM; with HepG2 cells [4], 5.48 µM. In addition, the “MMP assays efficacy (%) Rat Hepatocytes” value with rat primary hepatocytes [2] is recorded as -89±11%. Further, the “MMP assays efficacy (%) qHTS-HepG2” value in the data set on HepG2 cells [3] is reported as -94±2%. In addition, the “MMP assays efficacy (%) HepG2” value with HepG2 cells [4] is given as -118%.
On to `Oc1cc2ccccc2c2ccccc12` [Compound 9-Phenanthrol], for which the IC50 in the data set on rat primary hepatocytes [1] was 47.3 ± 10.7 µM; in the data set with HepG2 cells [3] (setting [6]) it was 1.22 ± 0.56 µM; in the data set on HepG2 cells [4] it was 3.55 µM. In addition, the “MMP assays efficacy (%) Rat Hepatocytes” value in the data set with rat primary hepatocytes [2] is on record as -94±31%. The “MMP assays efficacy (%) qHTS-HepG2” value with HepG2 cells [3] is -101±8%. Also, the “MMP assays efficacy (%) HepG2” value in the data set on HepG2 cells [4] is given as -101%.
As to `O=C1[C@H](CC[C@H](O)c2ccc(F)cc2)[C@@H](c2ccc(O)cc2)N1c1ccc(F)cc1`, the IC50 with rat primary hepatocytes [1] was 16.6 ± 20.1 µM; with HepG2 cells [3] (setting [6]), 25.6 ± 3.54 µM. The “MMP assays efficacy (%) Rat Hepatocytes” value in the data set on rat primary hepatocytes [2] is -52±2%. Besides, the “MMP assays efficacy (%) qHTS-HepG2” value in the data set on HepG2 cells [3] is listed as -81±11%. Further, in the data set on HepG2 cells [4], the “MMP assays efficacy (%) HepG2” value is -112%.
As for `Nc1c(Br)cc(Br)c2c1C(=O)c1ccccc1C2=O` [1-Amino-2,4-dibromoanthraquinone], the half-inhibitory concentration (IC50) in the data set with rat primary hepatocytes [1] (Rattus norvegicus, Hepatocyte) was 27.4 ± 4.44 µM; in the data set with HepG2 cells [3] (setting [6]) it was 2.78 ± 3.75 µM. Also, the “MMP assays efficacy (%) Rat Hepatocytes” value in the data set on rat primary hepatocytes [2] was -48±19%. For the same compound, in the data set with HepG2 cells [3], the “MMP assays efficacy (%) qHTS-HepG2” value was -54±9%. Also, the “MMP assays IC50 (µM) HepG2” value in the data set with HepG2 cells [4] is “inactive”. Also, in the data set with HepG2 cells [4], the “MMP assays efficacy (%) HepG2” value was “inactive”.
Consider `O=[N+]([O-])c1ccc2nc[nH]c2c1` [Compound 6-Nitrobenzimidazole], for which, in the data set with rat primary hepatocytes [1], the “MMP assays IC50 (µM) Rat Hepatocytes” value is “inactive”. In the data set with rat primary hepatocytes [2], the “MMP assays efficacy (%) Rat Hepatocytes” value was “inactive”. In the data set on HepG2 cells [3], the “MMP assays efficacy (%) qHTS-HepG2” value was -53±6%. Further, the concentration for half-maximal inhibition (IC50) in the data set on HepG2 cells [3] (setting [6]) was 36.4 ± 10.8 µM. Besides, in the data set with HepG2 cells [4], the “MMP assays IC50 (µM) HepG2” value was “inactive” and the “MMP assays efficacy (%) HepG2” value is “inactive”.
Consider `Cl.Cl.Nc1ccccc1N` [1,2-Phenylenediamine dihydrochloride], for which the IC50 with rat primary hepatocytes [1] is 14.2 ± 2.3 µM; in the data set on HepG2 cells [3] (setting [6]), 0.44 ± 0.2 µM; in the data set with HepG2 cells [4], 1.78 µM. Besides, the “MMP assays efficacy (%) Rat Hepatocytes” value with rat primary hepatocytes [2] is -104±10%. Also, in the data set on HepG2 cells [3], the “MMP assays efficacy (%) qHTS-HepG2” value is reported as -99±9%. Moreover, the “MMP assays efficacy (%) HepG2” value in the data set on HepG2 cells [4] is -90%.
Turning to `CC1(COc2ccc(CC3SC(=O)NC3=O)cc2)CCCCC1` (stereo not drawn) [Ciglitizone], the values for the 50% inhibitory concentration (IC50) with rat primary hepatocytes [1], in the data set on HepG2 cells [3] (setting [6]) and in the data set with HepG2 cells [4] were 9.92 ± 4.25 µM, 8.22 ± 1.6 µM and 14.1 µM, respectively. The “MMP assays efficacy (%) Rat Hepatocytes” value in the data set on rat primary hepatocytes [2] is -84±44%. Moreover, the “MMP assays efficacy (%) qHTS-HepG2” value with HepG2 cells [3] is recorded as -106±9%. In addition, the “MMP assays efficacy (%) HepG2” value in the data set with HepG2 cells [4] is listed as -97%.
Consider `COc1ccc(O)c(C(C)(C)C)c1` [Compound 2-tert-Butyl-4-methoxyphenol], for which the IC50 in the data set on rat primary hepatocytes [1] is 36.5 ± 19.2 µM; with HepG2 cells [3] (setting [6]), 25.3 ± 1.71 µM; in the data set with HepG2 cells [4], 35.5 µM. For the same compound, the “MMP assays efficacy (%) Rat Hepatocytes” value in the data set on rat primary hepatocytes [2] was -53±11%. For the same compound, the “MMP assays efficacy (%) qHTS-HepG2” value with HepG2 cells [3] is -92±3%.
In the case of `c1ccc(C2(N3CCCC3)CCCCC2)cc1` [Rolicyclidine], in the data set on rat primary hepatocytes [1], the “MMP assays IC50 (µM) Rat Hepatocytes” value is “inactive”. Further, the “MMP assays efficacy (%) Rat Hepatocytes” value in the data set on rat primary hepatocytes [2] is “inactive”. Moreover, the “MMP assays efficacy (%) qHTS-HepG2” value with HepG2 cells [3] is -97±15%. Besides, the half-inhibitory concentration (IC50) in the data set with HepG2 cells [3] (setting [5]) is 22.3 ± 2.32 µM. Further, in the data set with HepG2 cells [4], the “MMP assays IC50 (µM) HepG2” value was “inactive” and the “MMP assays efficacy (%) HepG2” value was “inactive”.
Take `C=C(C)C(=O)OCC(O)COc1ccc(C(C)(C)c2ccc(OCC(O)COC(=O)C(=C)C)cc2)cc1` (stereo not drawn) [Bisphenol A glycidyl methacrylate]: the 50% inhibitory concentration (IC50) with rat primary hepatocytes [1] was 38.1 ± 9.22 µM; with HepG2 cells [3] (setting [6]), 12.2 ± 11.9 µM; in the data set on HepG2 cells [4], 15.8 µM. Moreover, in the data set on rat primary hepatocytes [2], the “MMP assays efficacy (%) Rat Hepatocytes” value is recorded as -70±50%. For the same compound, in the data set on HepG2 cells [3], the “MMP assays efficacy (%) qHTS-HepG2” value is -121±28%. Moreover, the “MMP assays efficacy (%) HepG2” value in the data set on HepG2 cells [4] is -118%.
As for `CCN1\C(=C/C=C/C=C/c2sc3ccccc3[n+]2CC)Sc2ccccc21.[Cl-]` [Dithiazanine chloride], the 50% inhibitory concentration (IC50) in the data set with rat primary hepatocytes [1] was 2.45 µM; with HepG2 cells [3] (setting [6]) it was 0.27 µM; in the data set with HepG2 cells [4], 0.15 µM. The “MMP assays efficacy (%) Rat Hepatocytes” value with rat primary hepatocytes [2] was -77±9%. The “MMP assays efficacy (%) qHTS-HepG2” value in the data set on HepG2 cells [3] is reported as -56±6%. Also, the “MMP assays efficacy (%) HepG2” value in the data set on HepG2 cells [4] is on record as -79%.
In the case of `C[C@]12CC[C@@H]3c4ccc(O)cc4CC[C@H]3[C@@H]1CC[C@@H]2OP(=O)(O)O` [Estradiol phosphate], the “MMP assays IC50 (µM) Rat Hepatocytes” value with rat primary hepatocytes [1] was “inactive”. Moreover, the “MMP assays efficacy (%) Rat Hepatocytes” value in the data set with rat primary hepatocytes [2] was “inactive”. In the data set with HepG2 cells [3], the “MMP assays IC50 (µM) qHTS-HepG2” value is “inactive” and the “MMP assays efficacy (%) qHTS-HepG2” value is “inactive”. In addition, in the data set on HepG2 cells [4], the “MMP assays IC50 (µM) HepG2” value is “inactive” and the “MMP assays efficacy (%) HepG2” value is “inactive”.
As to `Cc1cnc(NC(=O)C2=C(O)c3ccccc3S(=O)(=O)N2C)s1` [Meloxicam], the “MMP assays IC50 (µM) Rat Hepatocytes” value in the data set with rat primary hepatocytes [1] was “inactive”. Moreover, the “MMP assays efficacy (%) Rat Hepatocytes” value in the data set on rat primary hepatocytes [2] was “inactive”. In addition, the half-maximal inhibitory concentration (IC50) in the data set with HepG2 cells [3] (setting [5]) is 14.5 µM. Moreover, in the data set on HepG2 cells [4], the “MMP assays IC50 (µM) HepG2” value was “inactive” and the “MMP assays efficacy (%) HepG2” value was “inactive”.
Take `O=C1C(I)=CC(=C(c2cc(I)c(O)c(I)c2)c2ccccc2C(=O)O)C=C1I` [Iodophthalein sodium]: the half-inhibitory concentration (IC50) is 8.73 ± 1 µM with rat primary hepatocytes [1], 10.8 ± 3.91 µM with HepG2 cells [3] (setting [5]) and 6.9 µM in the data set on HepG2 cells [4]. For the same compound, in the data set on rat primary hepatocytes [2], the “MMP assays efficacy (%) Rat Hepatocytes” value is -107±27%. Besides, the “MMP assays efficacy (%) qHTS-HepG2” value with HepG2 cells [3] is reported as -82±5%. The “MMP assays efficacy (%) HepG2” value in the data set on HepG2 cells [4] is given as -97%.
With `ClC1C(Cl)C(Cl)C(Cl)C(Cl)C1Cl` (stereo not drawn) [alpha-1,2,3,4,5,6-Hexachlorocyclohexane], the concentration for half-maximal inhibition (IC50) with rat primary hepatocytes [1] worked out at 39.8 µM. In the data set with rat primary hepatocytes [2], the “MMP assays efficacy (%) Rat Hepatocytes” value is reported as -54±20%. The “MMP assays efficacy (%) qHTS-HepG2” value in the data set with HepG2 cells [3] is -54±7%. Moreover, the IC50 with HepG2 cells [3] (setting [6]) was 49 ± 6.35 µM. In the data set on HepG2 cells [4], the “MMP assays IC50 (µM) HepG2” value is “inactive” and the “MMP assays efficacy (%) HepG2” value is “inactive”.
Consider `O=[N+]([O-])c1ccc2ncccc2c1` [Compound 6-Nitroquinoline], for which the half-maximal inhibitory concentration (IC50) with rat primary hepatocytes [1] (Rattus norvegicus, Hepatocyte) was determined as 44.8 ± 16.3 µM. In addition, the “MMP assays efficacy (%) Rat Hepatocytes” value with rat primary hepatocytes [2] is reported as -29±7%. Besides, the “MMP assays efficacy (%) qHTS-HepG2” value with HepG2 cells [3] is listed as -51±5%. The half-inhibitory concentration (IC50) in the data set on HepG2 cells [3] (setting [6]) was 30.7 ± 11.5 µM. Further, in the data set on HepG2 cells [4], the “MMP assays IC50 (µM) HepG2” value was “inactive” and the “MMP assays efficacy (%) HepG2” value was “inactive”.
